From DBAASP
≈ marks a conversion by molar mass, not a printed value.

How the values were obtained:
Assay in all cases: ≥ marks a high value that may be exact or a test limit, other limits are often not marked, values filed in µg/mL are converted to µM
[1] = tested on: Bacillus subtilis ATCC 23857
[2] = tested on: Candida albicans ATCC 10231
[3] = tested on: Staphylococcus aureus ATCC 25923
[4] = tested on: Acinetobacter baumannii ATCC 19606
[5] = tested on: Enterococcus faecalis ATCC 29212
[6] = tested on: Staphylococcus epidermidis ATCC 12228
[7] = tested on: Escherichia coli ATCC 25922
[8] = tested on: Klebsiella pneumoniae ATCC 700603
[9] = tested on: Pseudomonas aeruginosa ATCC 27853
[10] = tested on: Pseudomonas aeruginosa PAO1
[11] = tested on: Klebsiella pneumoniae ATCC 13883
[12] = tested on: Staphylococcus aureus USA 300
[13] = tested on: Salmonella enterica subsp. enterica serovar Typhimurium ATCC 14028
Klebsiella pneumoniae = tested on: Klebsiella pneumoniae
Bacillus subtilis = tested on: Bacillus subtilis
Salmonella typhimurium = tested on: Salmonella typhimurium
Staphylococcus aureus = tested on: Staphylococcus aureus
Escherichia coli = tested on: Escherichia coli
Pseudomonas aeruginosa = tested on: Pseudomonas aeruginosa
[14] = tested on: Staphylococcus epidermidis
[15] = tested on: Staphylococcus aureus ATCC 43300
Bacillus cereus = tested on: Bacillus cereus
[16] = tested on: Pseudomonas aeruginosa ATCC 9027
[17] = tested on: Staphylococcus aureus ATCC 33591

NC(=O)[C@H](CCCN=C(N)N)NC(=O)[C@H](CCCN=C(N)N)NC(=O)[C@H](Cc1ccccc1)NC(=O)[C@H](Cc1ccccc1)NC(=O)[C@H](CCCN=C(N)N)NC(=O)[C@H](CCCN=C(N)N)NC(=O)[C@H](Cc1ccccc1)NC(=O)[C@@H](N)Cc1ccccc1 [FFRRFFRR]
MIC [1]: ≥ 102 µM
MIC [2]: > 406 µM

C[C@H](NC(=O)[C@H](C)NC(=O)[C@@H](NC(=O)[C@H](CCCCN)NC(=O)[C@H](C)NC(=O)[C@H](CCCN=C(N)N)NC(=O)[C@H](CCCCN)NC(=O)[C@H](C)NC(=O)[C@H](C)NC(=O)CN)[C@@H](C)O)C(N)=O [GAAKRAKTAA]
MIC [3]: > 512 µM
MIC [1]: ≥ 512 µM
MIC [4]: > 512 µM
MIC [5]: > 512 µM
MIC [6]: > 512 µM
MIC [7]: > 512 µM
MIC [8]: > 512 µM
MIC [9]: > 512 µM

CC(C)C[C@H](NC(=O)[C@H](CC(C)C)NC(=O)[C@H](CCCCN)NC(=O)[C@H](CC(C)C)NC(=O)CNC(=O)[C@H](CC(C)C)NC(=O)[C@H](CO)NC(=O)[C@H](CC(C)C)NC(=O)[C@H](CC(C)C)NC(=O)[C@H](CO)NC(=O)[C@H](CC(C)C)NC(=O)[C@H](CC(C)C)NC(=O)CN)C(N)=O [GLLSLLSLGLKLL]
MIC [10]: > 25 µM
MIC [11]: 25 µM (≈ 33.5 µg/mL)
MIC [7]: > 25 µM
MIC [12]: 0.8 µM (≈ 1.07 µg/mL)

CC(C)C[C@H](NC(=O)CN)C(=O)N[C@@H](CC(C)C)C(=O)N[C@@H](CO)C(=O)N[C@@H](CC(C)C)C(=O)N[C@@H](CC(C)C)C(=O)N[C@@H](CO)C(=O)N[C@@H](CC(C)C)C(=O)N[C@@H](CC(C)C)C(=O)NCC(=O)N[C@@H](CCCCN)C(=O)N[C@@H](CC(C)C)C(=O)N[C@@H](C)C(N)=O [GLLSLLSLLGKLA]
MIC [10]: > 25 µM
MIC [11]: 17.7 µM (≈ 22.9 µg/mL)
MIC [7]: 2.16 µM (≈ 2.8 µg/mL)
MIC [12]: 1.56 µM (≈ 2.02 µg/mL)

CC[C@H](C)[C@H](NC(=O)[C@H](Cc1ccc(O)cc1)NC(=O)[C@@H](NC(=O)[C@@H]1CCCN1C(=O)[C@H](CCCN=C(N)N)NC(=O)[C@H](CC(N)=O)NC(=O)[C@H](CC(N)=O)NC(=O)CN)C(C)C)C(=O)N1CCC[C@H]1C(=O)N[C@@H](CCC(N)=O)C(=O)N1CCC[C@H]1C(=O)N[C@@H](CCCN=C(N)N)C(=O)N1CCC[C@H]1C(=O)N[C@@H](Cc1cnc[nH]1)C(=O)N1CCC[C@H]1C(=O)N[C@@H](CCCN=C(N)N)C(=O)N[C@@H](CC(C)C)C(=O)O [GNNRPVYIPQPRPHPRL]
MIC [13]: > 128 µM
MIC [7]: 128 µM (≈ 257 µg/mL)
MIC (Klebsiella pneumoniae): > 128 µM

CC(C)[C@H](NC(=O)CNC(=O)[C@H](CCCN=C(N)N)NC(=O)[C@@H](NC(=O)[C@@H](NC(=O)[C@@H](NC(=O)[C@H](CCCN=C(N)N)NC(=O)CNC(=O)[C@@H](NC(=O)[C@H](CCCN=C(N)N)NC(=O)[C@@H](NC(=O)[C@@H](NC(=O)[C@@H](NC(=O)CN)C(C)C)C(C)C)C(C)C)C(C)C)C(C)C)C(C)C)C(C)C)C(=O)N[C@@H](CCCN=C(N)N)C(=O)N[C@@H](CCCN=C(N)N)C(N)=O [GVVVRVGRVVVRGVRR]
MIC (Bacillus subtilis): 8 µM (≈ 14.1 µg/mL)
MIC (Salmonella typhimurium): 8 µM (≈ 14.1 µg/mL)
MIC (Staphylococcus aureus): 16 µM (≈ 28.2 µg/mL)
MIC (Escherichia coli): 8 µM (≈ 14.1 µg/mL)

CC[C@H](C)[C@H](NC(=O)[C@H](CCCN=C(N)N)NC(=O)[C@H](CCCCN)NC(=O)[C@H](Cc1ccccc1)NC(=O)[C@H](Cc1c[nH]c2ccccc12)NC(=O)CN)C(=O)N[C@@H](CCCCN)C(=O)N[C@H](C(=O)N[C@@H](Cc1ccccc1)C(=O)N[C@@H](Cc1c[nH]c2ccccc12)C(N)=O)[C@@H](C)O [GWFKRIKTFW]
MIC [3]: 16 µM (≈ 21.9 µg/mL)
MIC [1]: 4 µM (≈ 5.47 µg/mL)
MIC [4]: 64 µM (≈ 87.5 µg/mL)
MIC [5]: 64 µM (≈ 87.5 µg/mL)
MIC [6]: 4 µM (≈ 5.47 µg/mL)
MIC [7]: 16 µM (≈ 21.9 µg/mL)
MIC [8]: 32 µM (≈ 43.8 µg/mL)
MIC [9]: 8 µM (≈ 10.9 µg/mL)

CC(C)[C@H](NC(=O)CNC(=O)[C@@H](N)Cc1cnc[nH]1)C(=O)N[C@@H](CO)C(=O)NCC(=O)N[C@@H](Cc1cnc[nH]1)C(=O)NCC(=O)N[C@@H](CCC(N)=O)C(=O)N[C@@H](Cc1cnc[nH]1)C(=O)NCC(=O)N[C@H](C(=O)N[C@@H](Cc1cnc[nH]1)C(=O)NCC(=O)O)C(C)C [HGVSGHGQHGVHG]
MIC [3]: 12.6 µM (≈ 16 µg/mL)
MIC (Pseudomonas aeruginosa): 25.3 µM (≈ 32 µg/mL)
MIC [5]: > 101 µM
MIC [11]: 12.6 µM (≈ 16 µg/mL)
MIC [2]: > 101 µM
MIC [14]: 25.3 µM (≈ 32 µg/mL)
MIC (Staphylococcus aureus): 50.6 µM (≈ 64 µg/mL)
MIC (Klebsiella pneumoniae): 12.6 µM (≈ 16 µg/mL)
MIC [15]: > 101 µM
MIC (Escherichia coli): 12.6 µM (≈ 16 µg/mL)

CC[C@H](C)[C@H](NC(=O)CNC(=O)[C@H](CCCN=C(N)N)NC(=O)[C@H](C)NC(=O)[C@H](CCSC)NC(=O)[C@@H]1CCCN1C(=O)[C@H](C)NC(=O)CNC(=O)[C@H](CCC(=O)O)NC(=O)[C@H](CC(C)C)NC(=O)[C@@H]1CCCN1C(=O)[C@H](CC(=O)O)NC(=O)[C@H](Cc1ccccc1)NC(=O)[C@@H](N)CCCCN)C(=O)N[C@H](C(=O)N[C@@H](CC(C)C)C(=O)N[C@@H](CCC(=O)O)C(=O)N[C@@H](CCCCN)C(=O)N[C@H](C(=O)NCC(=O)O)C(C)C)C(C)C [KFDPLEGAPMARGIVLEKVG]
MIC (Escherichia coli): > 120 µM
MIC (Bacillus cereus): ≥ 120 µM

NCCCC[C@H](NC(=O)[C@H](CCCCN)NC(=O)[C@H](Cc1c[nH]c2ccccc12)NC(=O)[C@H](CCCN=C(N)N)NC(=O)[C@H](CCCCN)NC(=O)[C@H](Cc1c[nH]c2ccccc12)NC(=O)[C@H](Cc1c[nH]c2ccccc12)NC(=O)[C@@H](N)CCCCN)C(=O)N[C@@H](Cc1c[nH]c2ccccc12)C(=O)N[C@@H](Cc1c[nH]c2ccccc12)C(N)=O [KWWKRWKKWW]
MIC [3]: 8 µM (≈ 12.9 µg/mL)
MIC [1]: 4 µM (≈ 6.47 µg/mL)
MIC [4]: 8 µM (≈ 12.9 µg/mL)
MIC [5]: 16 µM (≈ 25.9 µg/mL)
MIC [6]: 8 µM (≈ 12.9 µg/mL)
MIC [7]: 16 µM (≈ 25.9 µg/mL)
MIC [8]: 16 µM (≈ 25.9 µg/mL)
MIC [9]: 8 µM (≈ 12.9 µg/mL)

CC(C)C[C@H](NC(=O)[C@H](C)NC(=O)[C@H](CCCCN)NC(=O)[C@H](CC(C)C)NC(=O)[C@H](CC(N)=O)NC(=O)[C@@H](N)CC(C)C)C(=O)N[C@@H](CC(C)C)C(=O)N[C@@H](C)C(=O)N[C@H](C(=O)N[C@@H](C)C(=O)N[C@@H](CCCCN)C(N)=O)C(C)C [LNLKALLAVAK]
MIC [3]: > 128 µM
MIC [1]: ≥ 128 µM
MIC [7]: > 128 µM
MIC [8]: > 128 µM
MIC [16]: > 128 µM

CC[C@H](C)[C@H](NC(=O)[C@@H](NC(=O)[C@H](C)NC(=O)[C@@H]1CCCN1C(=O)[C@H](Cc1ccccc1)NC(=O)[C@@H](NC(=O)[C@H](CCCCN)NC(=O)[C@H](CO)NC(=O)[C@H](C)NC(=O)[C@@H](NC(=O)[C@H](CCCN=C(N)N)NC(=O)CNC(=O)[C@@H](NC(=O)[C@@H](NC(=O)[C@@H]1CCCN1)C(C)C)C(C)C)C(C)C)C(C)C)C(C)C)C(=O)NCC(=O)N[C@@H](CC(C)C)C(=O)N[C@H](C(=O)N[C@@H](CCCCN)C(=O)N[C@@H](CCCCN)C(=O)O)C(C)C [PVVGRVASKVFPAVIGLVKK]
MIC (Escherichia coli): > 124 µM
MIC (Bacillus cereus): ≥ 124 µM

C[C@@H](O)[C@H](NC(=O)[C@H](CCCN=C(N)N)NC(=O)[C@H](CCCN=C(N)N)NC(=O)[C@H](CCCN=C(N)N)NC(=O)[C@@H]1CCCN1C(=O)[C@@H](N)CO)C(=O)N1CCC[C@H]1C(=O)N[C@@H](CO)C(=O)N1CCC[C@H]1C(=O)N[C@@H](CCCN=C(N)N)C(=O)N[C@@H](CCCN=C(N)N)C(=O)N[C@@H](CCCN=C(N)N)C(=O)N[C@@H](CCCN=C(N)N)C(=O)N[C@@H](CO)C(=O)N[C@@H](CCC(N)=O)C(=O)N[C@@H](CO)C(=O)N1CCC[C@H]1C(=O)N[C@@H](CCCN=C(N)N)C(=O)N[C@@H](CCCN=C(N)N)C(=O)N[C@@H](CCCN=C(N)N)C(N)=O [SPRRRTPSPRRRRSQSPRRR]
MIC [3]: > 100 µM
MIC [17]: ≥ 100 µM
MIC [7]: 25 µM (≈ 63.6 µg/mL)
MIC [9]: 100 µM (≈ 254 µg/mL)

CC[C@H](C)[C@H](NC(=O)[C@H](Cc1ccc(O)cc1)NC(=O)[C@@H](NC(=O)[C@@H](NC(=O)[C@H](C)NC(=O)[C@@H]1CCCN1C(=O)[C@@H](NC(=O)[C@H](CO)NC(=O)[C@H](CS)NC(=O)[C@H](CCCCN)NC(=O)[C@@H](NC(=O)[C@H](CCCCN)NC(=O)[C@@H](N)C(C)C)[C@@H](C)O)C(C)C)C(C)C)C(C)C)C(=O)N[C@@H](CC(C)C)C(=O)N[C@H](C(=O)N[C@@H](CCCCN)C(=O)N[C@H](C(=O)N[C@@H](Cc1ccccc1)C(=O)N[C@@H](CCCCN)C(=O)N[C@@H](CO)C(=O)O)[C@@H](C)O)C(C)C [VKTKCSVPAVVYILVKTFKS]
MIC (Escherichia coli): > 116 µM
MIC (Bacillus cereus): ≥ 116 µM
